Molecular target: human indolethylamine-N-methyltransferase (hINMT) (Homo sapiens, UniProt O95050)
Test: radiometric […]SAM methyltransferase assay, pure hINMT
Type: biochemical

Sequence of human indolethylamine-N-methyltransferase (hINMT) (O95050 whole entry): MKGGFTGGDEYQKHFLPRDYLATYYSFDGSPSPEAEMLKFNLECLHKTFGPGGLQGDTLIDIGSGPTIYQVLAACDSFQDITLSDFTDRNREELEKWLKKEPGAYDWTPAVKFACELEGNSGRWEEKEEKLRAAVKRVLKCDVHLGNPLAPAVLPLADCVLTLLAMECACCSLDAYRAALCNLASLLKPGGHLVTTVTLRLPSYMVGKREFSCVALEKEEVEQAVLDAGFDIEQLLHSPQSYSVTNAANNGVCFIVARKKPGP

SMILES: CN(C)CCCNCCc1c[nH]c2ccccc12 [PDAT, N-[2-(1H-indol-3-yl)ethyl]-N′,N′-dimethylpropane-1,3-diamine]
- IC50: ~1000 µM
